Assay results as given in patent US12435044B2, “Pyridazinone herbicides and pyridazinone intermediates used to prepare a herbicide” (FMC Corporation, priority 2018, dated 2025).

How the values were obtained:
Experiment in all cases: Test I pre-/postemergence, mixtures of Cpd. No. 20 with saflufenacil or pyroxasulfone
Type in all cases: in vivo
[1] = system: common ragweed (AMBEL; Ambrosia artemisiifolia); details: for Plant response rating (0 to 100 scale): AMBEL
Text: (§1) This test evaluated the effect of mixtures of Cpd. No. 20 with saflufenacil or pyroxasulfone on several plant species. Seeds of plant species selected from corn (ZEAMD; Zea mays, cv. ‘Pioneer 1184’), soybean (GLXMA; Glycine max, cv. Pioneer 35T58), giant foxtail (SETFA; Setaria faberi), palmer amaranth (AMAPA; Amaranthus palmeri), common waterhemp (AMATU; Amaranthus rudis), mare's tail (ERICA; Conyza canadensis), and common ragweed (AMBEL; Ambrosia artemisiifolia) were planted in pots containing Tama Silt Loam soil and treated preemergence with a directed soil spray using test chemicals formulated in a non-phytotoxic solvent mixture which included a surfactant.
(§2) At the same time, plants selected from these crop and weed species were planted in pots containing Redi-Earth® planting medium (Scotts Company, 14111 Scottslawn Road, Marysville, Ohio 43041) comprising spaghnum peat moss, vermiculite, wetting agent and starter nutrients and treated postemergence with test chemicals formulated in the same manner. Plants ranged in height from 2 to 10 cm and were in the one- to two-leaf stage for the postemergence treatment. Treated plants and untreated controls were maintained in a greenhouse for approximately 14-21 d, after which time all treated plants were compared to untreated controls and visually evaluated for injury. Plant response ratings, summarized in Tables 11 to 14, are based on a 0 to 100 scale where 0 is no effect and 100 is complete control. A dash (-) response means no test result. Test results are presented as a mean of 4 reps.

[2] = system: common waterhemp (AMATU; Amaranthus rudis); details: for Plant response rating (0 to 100 scale): AMATU
Text: as §1, §2

[3] = system: corn (ZEAMD; Zea mays, cv. ‘Pioneer 1184’); details: for Plant response rating (0 to 100 scale): ZEAMD
Text: as §1, §2

[4] = system: giant foxtail (SETFA; Setaria faberi); details: for Plant response rating (0 to 100 scale): SETFA
Text: as §1, §2

[5] = system: mare's tail (ERICA; Conyza canadensis); details: for Plant response rating (0 to 100 scale): Preemergence, ERICA
Text: as §1, §2

[6] = system: palmer amaranth (AMAPA; Amaranthus palmeri); details: for Plant response rating (0 to 100 scale): AMAPA
Text: as §1, §2

[7] = system: soybean (GLXMA; Glycine max, cv. Pioneer 35T58); details: for Plant response rating (0 to 100 scale): GLXMA
Text: as §1, §2

[8] = Preemergence, Cpd. No. 20 8 g a.i./ha alone
[9] = preemergence, Cpd. No. 20 16 g a.i./ha alone
[10] = preemergence, Cpd. No. 20 31 g a.i./ha alone
[11] = preemergence, Cpd. No. 20 62 g a.i./ha alone

Cc1ccc2ccc(C)c(-c3c(O)c(Cl)nn(C)c3=O)c2c1 [Cpd. No. 20, 6-chloro-4-(2,7-dimethyl-1-naphthalenyl)-5-hydroxy-2-methyl-3(2H)-pyridazinone]
Plant response rating (0 to 100 scale) [1, 8]: 0
AMBEL plant response rating, 0 to 100 scale ([1]; postemergence, 8 g a.i./ha): 86
AMBEL plant response rating, 0 to 100 scale ([1]; postemergence, 16 g a.i./ha): 90
AMBEL plant response rating, 0 to 100 scale ([1]; postemergence, 31 g a.i./ha): 100
AMBEL plant response rating, 0 to 100 scale ([1]; postemergence, 62 g a.i./ha): 94
AMBEL plant response rating, 0 to 100 scale ([1]; preemergence, 8 g a.i./ha): 0
AMBEL plant response rating, 0 to 100 scale ([1]; preemergence, 16 g a.i./ha): 10
AMBEL plant response rating, 0 to 100 scale ([1]; preemergence, 31 g a.i./ha): 69
AMBEL plant response rating, 0 to 100 scale ([1]; preemergence, 62 g a.i./ha): 98
Plant response rating (0 to 100 scale) [1, 9]: 10
Plant response rating (0 to 100 scale) [1, 10]: 69
Plant response rating (0 to 100 scale) [1, 11]: 98
Plant response rating (0 to 100 scale) [2, 8]: 0
AMATU plant response rating, 0 to 100 scale ([2]; postemergence, 8 g a.i./ha): 50
AMATU plant response rating, 0 to 100 scale ([2]; postemergence, 16 g a.i./ha): 59
AMATU plant response rating, 0 to 100 scale ([2]; postemergence, 31 g a.i./ha): 81
AMATU plant response rating, 0 to 100 scale ([2]; postemergence, 62 g a.i./ha): 83
AMATU plant response rating, 0 to 100 scale ([2]; preemergence, 8 g a.i./ha): 0
AMATU plant response rating, 0 to 100 scale ([2]; preemergence, 16 g a.i./ha): 0
AMATU plant response rating, 0 to 100 scale ([2]; preemergence, 31 g a.i./ha): 0
AMATU plant response rating, 0 to 100 scale ([2]; preemergence, 62 g a.i./ha): 80
Plant response rating (0 to 100 scale) [2, 9]: 0
Plant response rating (0 to 100 scale) [2, 10]: 0
Plant response rating (0 to 100 scale) [2, 11]: 80
Plant response rating (0 to 100 scale) [3, 8]: 0
ZEAMD plant response rating, 0 to 100 scale ([3]; postemergence, 8 g a.i./ha): 0
ZEAMD plant response rating, 0 to 100 scale ([3]; postemergence, 16 g a.i./ha): 0
ZEAMD plant response rating, 0 to 100 scale ([3]; postemergence, 31 g a.i./ha): 0
ZEAMD plant response rating, 0 to 100 scale ([3]; postemergence, 62 g a.i./ha): 0
ZEAMD plant response rating, 0 to 100 scale ([3]; preemergence, 8 g a.i./ha): 0
ZEAMD plant response rating, 0 to 100 scale ([3]; preemergence, 16 g a.i./ha): 0
ZEAMD plant response rating, 0 to 100 scale ([3]; preemergence, 31 g a.i./ha): 0
ZEAMD plant response rating, 0 to 100 scale ([3]; preemergence, 62 g a.i./ha): 0
Plant response rating (0 to 100 scale) [3, 9]: 0
Plant response rating (0 to 100 scale) [3, 10]: 0
Plant response rating (0 to 100 scale) [3, 11]: 0
Plant response rating (0 to 100 scale) [4, 8]: 25
SETFA plant response rating, 0 to 100 scale ([4]; postemergence, 8 g a.i./ha): 55
SETFA plant response rating, 0 to 100 scale ([4]; postemergence, 16 g a.i./ha): 80
SETFA plant response rating, 0 to 100 scale ([4]; postemergence, 31 g a.i./ha): 76
SETFA plant response rating, 0 to 100 scale ([4]; postemergence, 62 g a.i./ha): 78
SETFA plant response rating, 0 to 100 scale ([4]; preemergence, 8 g a.i./ha): 25
SETFA plant response rating, 0 to 100 scale ([4]; preemergence, 16 g a.i./ha): 39
SETFA plant response rating, 0 to 100 scale ([4]; preemergence, 31 g a.i./ha): 84
SETFA plant response rating, 0 to 100 scale ([4]; preemergence, 62 g a.i./ha): 99
Plant response rating (0 to 100 scale) [4, 9]: 39
Plant response rating (0 to 100 scale) [4, 10]: 84
Plant response rating (0 to 100 scale) [4, 11]: 99
Plant response rating (0 to 100 scale) ([5]; Cpd. No. 20 8 g a.i./ha alone): 93
Plant response rating (0 to 100 scale) ([5]; Cpd. No. 20 16 g a.i./ha alone): 100
Plant response rating (0 to 100 scale) ([5]; Cpd. No. 20 31 g a.i./ha alone): 100
Plant response rating (0 to 100 scale) ([5]; Cpd. No. 20 62 g a.i./ha alone): 100
ERICA plant response rating, 0 to 100 scale ([5]; postemergence, 8 g a.i./ha): 85
ERICA plant response rating, 0 to 100 scale ([5]; postemergence, 16 g a.i./ha): 86
ERICA plant response rating, 0 to 100 scale ([5]; postemergence, 31 g a.i./ha): 90
ERICA plant response rating, 0 to 100 scale ([5]; postemergence, 62 g a.i./ha): 90
ERICA plant response rating, 0 to 100 scale ([5]; preemergence, 8 g a.i./ha): 93
ERICA plant response rating, 0 to 100 scale ([5]; preemergence, 16 g a.i./ha): 100
ERICA plant response rating, 0 to 100 scale ([5]; preemergence, 31 g a.i./ha): 100
ERICA plant response rating, 0 to 100 scale ([5]; preemergence, 62 g a.i./ha): 100
Plant response rating (0 to 100 scale) [6, 8]: 23
AMAPA plant response rating, 0 to 100 scale ([6]; postemergence, 8 g a.i./ha): 38
AMAPA plant response rating, 0 to 100 scale ([6]; postemergence, 16 g a.i./ha): 40
AMAPA plant response rating, 0 to 100 scale ([6]; postemergence, 31 g a.i./ha): 50
AMAPA plant response rating, 0 to 100 scale ([6]; postemergence, 62 g a.i./ha): 65
AMAPA plant response rating, 0 to 100 scale ([6]; preemergence, 8 g a.i./ha): 23
AMAPA plant response rating, 0 to 100 scale ([6]; preemergence, 16 g a.i./ha): 44
AMAPA plant response rating, 0 to 100 scale ([6]; preemergence, 31 g a.i./ha): 23
AMAPA plant response rating, 0 to 100 scale ([6]; preemergence, 62 g a.i./ha): 61
Plant response rating (0 to 100 scale) [6, 9]: 44
Plant response rating (0 to 100 scale) [6, 10]: 23
Plant response rating (0 to 100 scale) [6, 11]: 61
Plant response rating (0 to 100 scale) [7, 8]: 0
GLXMA plant response rating, 0 to 100 scale ([7]; postemergence, 8 g a.i./ha): 0
GLXMA plant response rating, 0 to 100 scale ([7]; postemergence, 16 g a.i./ha): 0
GLXMA plant response rating, 0 to 100 scale ([7]; postemergence, 31 g a.i./ha): 15
GLXMA plant response rating, 0 to 100 scale ([7]; postemergence, 62 g a.i./ha): 16
GLXMA plant response rating, 0 to 100 scale ([7]; preemergence, 8 g a.i./ha): 0
GLXMA plant response rating, 0 to 100 scale ([7]; preemergence, 16 g a.i./ha): 0
GLXMA plant response rating, 0 to 100 scale ([7]; preemergence, 31 g a.i./ha): 0
GLXMA plant response rating, 0 to 100 scale ([7]; preemergence, 62 g a.i./ha): 0
Plant response rating (0 to 100 scale) [7, 9]: 0
Plant response rating (0 to 100 scale) [7, 10]: 0
Plant response rating (0 to 100 scale) [7, 11]: 0
